The values that follow come from patent publication US20250066377A1, “AMINO CHROMEN-2-ONE MODULATORS OF POLRMT” (Pretzel Therapeutics, Inc., priority 2021, published 2025).

Where only a bound is given, the exact number is not on record here.

Sequence of POLRMT (O00411 42-1230): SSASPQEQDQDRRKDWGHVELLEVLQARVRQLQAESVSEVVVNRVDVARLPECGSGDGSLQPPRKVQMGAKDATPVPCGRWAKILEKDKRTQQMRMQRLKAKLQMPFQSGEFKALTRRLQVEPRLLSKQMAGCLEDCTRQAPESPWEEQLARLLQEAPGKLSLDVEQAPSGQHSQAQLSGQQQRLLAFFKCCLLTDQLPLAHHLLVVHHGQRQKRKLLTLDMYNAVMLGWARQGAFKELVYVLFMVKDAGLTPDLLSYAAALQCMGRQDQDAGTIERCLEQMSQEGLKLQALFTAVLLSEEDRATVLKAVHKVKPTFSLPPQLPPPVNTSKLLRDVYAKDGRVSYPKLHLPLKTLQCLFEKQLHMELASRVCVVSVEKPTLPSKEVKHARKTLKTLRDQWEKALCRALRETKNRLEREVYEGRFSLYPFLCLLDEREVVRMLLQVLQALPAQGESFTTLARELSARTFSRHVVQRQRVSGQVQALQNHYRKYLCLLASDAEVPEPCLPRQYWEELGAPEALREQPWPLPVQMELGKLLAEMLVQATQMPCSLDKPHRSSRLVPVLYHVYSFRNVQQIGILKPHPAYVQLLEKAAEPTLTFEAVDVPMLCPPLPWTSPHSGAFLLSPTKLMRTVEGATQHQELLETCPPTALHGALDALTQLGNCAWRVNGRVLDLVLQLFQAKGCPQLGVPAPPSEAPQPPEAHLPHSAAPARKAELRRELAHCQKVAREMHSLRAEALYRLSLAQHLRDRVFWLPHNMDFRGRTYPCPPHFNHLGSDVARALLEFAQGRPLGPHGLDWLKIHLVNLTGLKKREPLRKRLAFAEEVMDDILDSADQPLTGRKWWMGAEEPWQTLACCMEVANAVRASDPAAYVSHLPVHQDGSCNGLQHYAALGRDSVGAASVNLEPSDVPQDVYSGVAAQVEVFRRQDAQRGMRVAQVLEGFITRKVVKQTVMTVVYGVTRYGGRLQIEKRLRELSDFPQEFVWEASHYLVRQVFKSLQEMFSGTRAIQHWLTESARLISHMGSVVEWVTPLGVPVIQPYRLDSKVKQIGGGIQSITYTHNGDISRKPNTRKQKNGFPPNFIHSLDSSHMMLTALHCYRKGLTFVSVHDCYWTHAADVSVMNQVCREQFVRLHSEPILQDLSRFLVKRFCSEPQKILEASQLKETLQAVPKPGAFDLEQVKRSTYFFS

This assay has as its target POLRMT (Homo sapiens (Human), UniProt O00411). The experiment in a line: POLRMT homogeneous TR-FRET mitochondrial transcription assay. It is filed as biochemical. To be noted: inhibition of POLRMT; TR-FRET detection of 407 bp RNA transcript; 7.5 nM POLRMT, 15 nM TFB2M, 30 nM TFAM, 60 minutes at 37° C. How it is done:
The inhibitory activity of the compounds of the present invention against POLRMT were determined by assays based on Bergbrede, T., et al., “An adaptable high-throughput technology enabling the identification of specific transcription modulators,” SLAC Discov., 22, 378-386 (2017).
The ability of some compounds of the present invention to inhibit POLRMT were determined in a homogeneous TR-FRET Assay using high-throughput screening in a 384-well plate format. This method is used to monitor the activity of mitochondrial transcription through measurement of its product, a 407 bp long RNA transcript. Detection of the product is facilitated by hybridization of two DNA-oligonucleotide probes to specific and adjacent sequences within the RNA product sequence. Upon annealing of the probes, two fluorophores are coupled directly to an acceptor nucleotide probe (ATTO647, 5′), or introduced via a coupled streptavidin with a biotinylated donor nucleotide probe (Europium cryptate) that is brought into sufficient proximity to serve as a fluorescence-donor-acceptor pair. Thus, a FRET signal at 665 nm is generated upon excitation at 340 nm.
Proteins used as transcription factors (POLRMT: NP_005026.3, TFAM: NP_003192.1, TFB2M: NP_071761.1) are diluted from their stocks to working concentrations of 1 μM, 20 μM and 4 μM respectively, in a dilution buffer containing 20 mM Tris-HCl (pH 8.0), 200 mM NaCl, 10% (v/v) glycerol, 1 mM Dithiothreitol (DTT), 0.5 mM EDTA.
DNA template is a pUC18 plasmid with the mitochondrial light strand promotor sequence (1-477) cloned between HindIII and BamHI sites. The DNA template is restriction linearized proximal to the promotor 3′-end (pUC-LSP).
The reaction mixture (10 uL) containing 7.5 nM POLRMT, 15 nM of TFB2M, 30 nM of TFAM, 0.5 nM of DNA template and 500 μM nucleotide triphosphate mix (NTPs) in a reaction buffer (containing 10 mM Tris-HCl (pH 7.5), 10 mM MgCl2, 40 mM NaCl, 10 mM DTT, 0.005% (w/v) Tween-20, 160 units/ml Rnase inhibitor and 0.1 mg/mL BSA) are dispensed to compounds in microplates, using a Thermo Multidrop® dispenser, and incubated at 37° C. in a VWR INCU-Line incubator for 60 minutes after mixing. No nucleotide triphosphate mix is added to negative control samples. Microplates with compounds to be tested in the assay are prepared from 10 mM compound stocks in 100% DMSO, equal amounts of DMSO without any compound are added to positive control and negative control samples.
During the incubation, a mix of the detection reagents is prepared in a buffer such that the enzymatic reaction is terminated due to chelating of Mg-ions and increased ionic strength, containing 50 mM Tris-HCl (pH 7.5), 700 mM NaCl, 20 mM EDTA, and 0.01% (w/v) Tween-20. Europium-streptavidin is pre-incubated with a 200-fold molar excess of a random sequence oligonucleotide to block unspecific binding of oligo, for two hours at ambient temperature in the dark. Afterwards, the blocked Europium-streptavidin is kept on ice until use.
At the end of the enzymatic reaction time, 5 μL detection oligo mix in the detection buffer is added, and assay plates are mixed and kept at ambient temperature for one hour, protected from light. The concentration of the Acceptor nucleotide oligo (e.g., ATTO647N-5′-[…]-3′) and Donor nucleotide oligo (e.g., bio-5′-AACACATCTCT(-bio)GCCAAACCCCA-bio-3′) in each assay well is 1 nM, and 3 nM, respectively.
After incubation with oligo mix, 5 μL of pre-blocked Europium-streptavidin reagent is dispensed to each assay well, assay plates are again mixed and kept at ambient temperature for one hour, protected from light.
The generated signal is measured with BMG Pherastar microtiter plate reader with a TRF light unit, using excitation at 340 nm, an integration time of 200 μs, and a delay time of 100 μs, before detection at 620 nm and 665 nm. The ratio of donor- and acceptor-fluorescence is used as a measure of the generated transcript product (i.e. enzymatic activity).
In turn, `COC1CN(c2ccc3c(-c4ccccc4C)cc(=O)oc3n2)C1` [Example 20, 7-(3-methoxyazetidin-1-yl)-4-(o-tolyl)-2H-pyrano[2,3-b]pyridin-2-one] came in with a half-maximal inhibitory concentration (IC50) of 2 µM.

In the case of `COC(=O)[C@H](C)N(C)c1ccc2c(-c3ccc(F)cc3Cl)cc(=O)oc2n1` [Example 53, methyl N-(4-(2-chloro-4-fluorophenyl)-2-oxo-2H-pyrano[2,3-b]pyridin-7-yl)-N-methyl-L-alaninate], the midpoint of inhibition, the IC50, lay at 1 µM.

Compound `CN(CC(N)=O)c1ccc2c(-c3ccc(F)cc3Cl)cc(=O)oc2n1` [Example 46, 2-((4-(2-chloro-4-fluorophenyl)-2-oxo-2H-pyrano[2,3-b]pyridin-7-yl)(methyl)amino)acetamide] came in with a half-inhibitory concentration (IC50) of 2 µM.

For `Cc1ccccc1-c1cc(=O)oc2nc(N(C)CC(=O)NCC(=O)O)ccc12` [Example 60, N-methyl-N-(2-oxo-4-(o-tolyl)-2H-pyrano[2,3-b]pyridin-7-yl)glycylglycine], it took 6 µM to reach half-maximal inhibition (IC50).

In turn, `Cc1ccccc1-c1cc(=O)oc2nc(N3CCOCC3C)ccc12` (single isomer, unassigned) [Example 14, 7-(3-methylmorpholino)-4-(o-tolyl)-2H-pyrano[2,3-b]pyridin-2-one] had a half-maximal inhibitory concentration (IC50) of 0.4 µM.

In the case of `COC1CCN(c2ccc3c(-c4ccccc4C)cc(=O)oc3n2)C1` (single isomer, unassigned) [Example 23, 7-(3-methoxypyrrolidin-1-yl)-4-(o-tolyl)-2H-pyrano[2,3-b]pyridin-2-one], the concentration for half-maximal inhibition (IC50) worked out at 0.09 µM.

Take `Cc1ccccc1-c1cc(=O)oc2nc(N3CCCC3C(=O)O)ccc12` (single isomer, unassigned) [Example 37, 1-(2-oxo-4-(o-tolyl)-2H-pyrano[2,3-b]pyridin-7-yl)pyrrolidine-2-carboxylic acid]: the IC50 amounted to 0.2 µM.

With `COC1CCN(c2ccc3c(-c4ccc(F)cc4Cl)cc(=O)oc3n2)C1` (single isomer, unassigned) [Example 25, 4-(2-chloro-4-fluorophenyl)-7-(3-methoxypyrrolidin-1-yl)-2H-pyrano[2,3-b]pyridin-2-one], the midpoint of inhibition, the IC50, lay at 1 µM.

Compound `Cc1ccccc1-c1cc(=O)oc2nc(N(C)C(C)C(N)=O)ccc12` (single isomer, unassigned) [Example 48, 2-(methyl(2-oxo-4-(o-tolyl)-2H-pyrano[2,3-b]pyridin-7-yl)amino)propanamide] yielded an IC50 of 0.5 µM.

`Cc1ccccc1-c1cc(=O)oc2nc(N3CCOCC3)ccc12` [Example 02, 7-morpholino-4-(o-tolyl)-2H-pyrano[2,3-b]pyridin-2-one] displayed a half-inhibitory concentration (IC50) of 2 µM.

Compound `COCC1CCN(c2ccc3c(-c4ccccc4C)cc(=O)oc3n2)C1` (single isomer, unassigned) [Example 32, 7-(3-(methoxymethyl)pyrrolidin-1-yl)-4-(o-tolyl)-2H-pyrano[2,3-b]pyridin-2-one] yielded a 50% inhibitory concentration (IC50) of 1 µM.

`Cc1ccccc1-c1cc(=O)oc2nc(N3CCC(C(N)=O)C3)ccc12` (single isomer, unassigned) [Example 29, 1-(2-oxo-4-(o-tolyl)-2H-pyrano[2,3-b]pyridin-7-yl)pyrrolidine-3-carboxamide] yielded an IC50 of 7 µM.

As to `CC(=O)N1CCN(c2ccc3c(-c4ccccc4C)cc(=O)oc3n2)CC1` [Example 06, 7-(4-acetylpiperazin-1-yl)-4-(o-tolyl)-2H-pyrano[2,3-b]pyridin-2-one], the half-maximal inhibitory concentration (IC50) is > 100 µM.

In the case of `Cc1ccccc1-c1cc(=O)oc2nc(N3CCC(N(C)C)C3)ccc12` (stereo not drawn) [Example 08, 7-[3-(dimethylamino)pyrrolidin-1-yl]-4-(o-tolyl)pyrano[2,3-b]pyridin-2-one], the IC50 is 18 µM.

`CC(=O)NC1CCN(c2ccc3c(-c4ccccc4C)cc(=O)oc3n2)C1` (stereo not drawn) [Example 22, N-(1-(2-oxo-4-(o-tolyl)-2H-pyrano[2,3-b]pyridin-7-yl)pyrrolidin-3-yl)acetamide]: the IC50 was 3 µM.

`Cc1ccccc1-c1cc(=O)oc2nc(N(C)CC(N)=O)ccc12` [Example 40, 2-[methyl-[4-(o-tolyl)-2-oxo-pyrano[2,3-b]pyridin-7-yl]amino]acetamide] came in with an IC50 of 0.5 µM.

Regarding `Cc1ccccc1-c1cc(=O)oc2nc(N3CCC(C(=O)O)C3)ccc12` (single isomer, unassigned) [Example 34, 1-(2-oxo-4-(o-tolyl)-2H-pyrano[2,3-b]pyridin-7-yl)pyrrolidine-3-carboxylic acid], 20 µM corresponded to half-maximal inhibition (IC50).

In turn, `COCCN(C)c1ccc2c(-c3ccccc3C)cc(=O)oc2n1` [Example 04, 7-((2-methoxyethyl)(methyl)amino)-4-(o-tolyl)-2H-pyrano[2,3-b]pyridin-2-one] yielded an IC50 of 2 µM.

For the compound `Cc1ccccc1-c1cc(=O)oc2nc(N3CCC(C(N)=O)C3)ccc12` (racemic) [Example 16, 1-(2-oxo-4-(o-tolyl)-2H-pyrano[2,3-b]pyridin-7-yl)pyrrolidine-3-carboxamide], the half-inhibitory concentration (IC50) was 2 µM.

The compound `Cc1ccccc1-c1cc(=O)oc2nc(N3CCCC3C(=O)O)ccc12` (single isomer, unassigned) [Example 38, 1-(2-oxo-4-(o-tolyl)-2H-pyrano[2,3-b]pyridin-7-yl)pyrrolidine-2-carboxylic acid] showed a half-maximal inhibitory concentration (IC50) of 1 µM.

On to `Cc1ccccc1-c1cc(=O)oc2nc(N3CC4(COC4)C3)ccc12` [Example 10, 7-(2-oxa-6-azaspiro[3.3]heptan-6-yl)-4-(o-tolyl)-2H-pyrano[2,3-b]pyridin-2-one], for which the IC50 was found to be 86 µM.

The compound `Cc1ccccc1-c1cc(=O)oc2nc(N(C)CCC(N)=O)ccc12` [Example 42] displayed a half-maximal inhibitory concentration (IC50) of 3 µM.

As for `Cc1cccc(C)c1-c1cc(=O)oc2nc(N(C)CC(N)=O)ccc12` [Example 56, 2-((4-(2,6-dimethylphenyl)-2-oxo-2H-pyrano[2,3-b]pyridin-7-yl)(methyl)amino)acetamide], the 50% inhibitory concentration (IC50) is 0.2 µM.

Regarding `Cc1ccccc1-c1cc(=O)oc2nc(N3CCC(C(N)=O)C3)ccc12` (single isomer, unassigned) [Example 30, 1-(2-oxo-4-(o-tolyl)-2H-pyrano[2,3-b]pyridin-7-yl)pyrrolidine-3-carboxamide], the half-maximal inhibitory concentration (IC50) turned out to be 0.9 µM.

Compound `Cc1ccccc1-c1cc(=O)oc2nc(N3CCC(C)(O)C3)ccc12` (single isomer, unassigned) [Example 27, 7-(3-hydroxy-3-methylpyrrolidin-1-yl)-4-(o-tolyl)-2H-pyrano[2,3-b]pyridin-2-one] showed an IC50 of 1 µM.

As for `CN(CCC(N)=O)c1ccc2c(-c3ccc(F)cc3Cl)cc(=O)oc2n1` [Example 52, 3-((4-(2-chloro-4-fluorophenyl)-2-oxo-2H-pyrano[2,3-b]pyridin-7-yl)(methyl)amino)propanamide], the IC50 amounted to 10 µM.

`Cc1ccccc1-c1cc(=O)oc2nc(N(C)C(C)C(N)=O)ccc12` (single isomer, unassigned) [Example 49, 2-(methyl(2-oxo-4-(o-tolyl)-2H-pyrano[2,3-b]pyridin-7-yl)amino)propanamide] showed an IC50 of 1 µM.
